# Experimental data: PubChem BioAssay (NCI)
#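 These data come from cells grown in 96-well plates and exposed to compound for 48 hours at five concentrations. TGI denotes the concentration required for complete inhibition of growth.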
# Experiments:
# Assay in all cases: NCI tumour cell line growth inhibition, 48 h
# HCT-116 colon = tested on: HCT-116 colon
# HL-60(TB) leukemia = tested on: HL-60(TB) leukemia
# KM12 colon = tested on: KM12 colon
# MALME-3M melanoma = tested on: MALME-3M melanoma
# NCI-H226 lung = tested on: NCI-H226 lung
# NCI-H460 lung = tested on: NCI-H460 lung
# PC-3 prostate = tested on: PC-3 prostate
# SF-268 CNS = tested on: SF-268 CNS
# SK-MEL-2 melanoma = tested on: SK-MEL-2 melanoma
# UO-31 renal = tested on: UO-31 renal
SMILES,TGI (HCT-116 colon) [µM],TGI (HL-60(TB) leukemia) [µM],TGI (KM12 colon) [µM],TGI (MALME-3M melanoma) [µM],TGI (NCI-H226 lung) [µM],TGI (NCI-H460 lung) [µM],TGI (PC-3 prostate) [µM],TGI (SF-268 CNS) [µM],TGI (SK-MEL-2 melanoma) [µM],TGI (UO-31 renal) [µM]
COC(=O)C1OC(O[C@H]2CC[C@]3(C)[C@H]4CC=C5[C@@H]6CC(C)(C)CC[C@]6(C(=O)OC6OCC(O)C(O)C6OC6OC(C)C(OC7OCC(OC8OCC(O)C(O)C8O)C(O)C7O)C(O)C6O)[C@H](O)C[C@@]5(C)[C@]4(C)CC[C@H]3C2(C)C)C(O)C(O)C1O (stereo not given in full),12.9,> 26.9,14.2,14.5,6.23,32.5,15.5,13.9,10.1,3.56
CC1=CC(=O)CC2(C)CCC(C(C)CC(=O)CC(C)C)CC12 (stereo not given),30.4,43.2,36.4,62.4,63.2,> 100,40.7,> 100,> 100,> 100
O=C(c1ccccc1)N1C(=S)N=C(Nc2ccccc2)C1=Nc1ccccc1,> 100,> 100,> 100,> 100,> 100,> 100,> 100,> 100,> 100,> 100
CC(C)CCn1nc(N)c2nc3ccccc3nc21,> 100,> 100,> 100,> 100,> 100,> 100,> 100,> 100,> 100,> 100
COc1ccc(N=C2C(=S)N(c3ccc(OC)cc3)/C(=N/S(=O)(=O)c3ccccc3)N2c2ccccc2)cc1,17.7,> 100,34.6,36.2,38.7,> 73.2,11.1,29.2,25.5,13.4
CC1C(c2ccc3c(c2)OCO3)c2cc3c(cc2OC1N1CCOCC1)OCO3 (stereo not given),47.3,> 62.2,94.2,97.6,81.7,> 80.1,> 100,> 100,58.8,85
N#CCCN(CCC#N)c1ccc(/C=C2\SC(=S)NC2=O)cc1Br,> 100,> 100,> 100,> 100,> 100,> 100,> 100,> 100,> 100,> 100
Cn1ccnc1Sc1ccc(C=Nc2ccc3nc(SCC(=O)NC4CCCCC4)sc3c2)cc1[N+](=O)[O-],> 100,> 100,> 100,> 100,> 100,> 100,> 100,> 100,54.1,> 100
Nc1ccc2nc3n(c2c1)C(=O)c1ccccc1-3,> 100,> 100,> 100,> 100,> 100,> 100,> 100,> 100,> 100,> 100
CC12CC1C(c1cccc([N+](=O)[O-])c1)(c1cccc([N+](=O)[O-])c1)N=N2 (stereo not given),33.8,45.8,47.3,53.1,> 100,> 100,88.8,> 100,> 100,23.8
